This is an account of results in patent publication US20150190404A1, “TREATING SEIZURES USING ICE INHIBITORS” (Vertex Pharmaceuticals Incorporated, priority 2004, published 2015).

“And” between values parts separate entries of the source, which are not always exact repeats. Equal entries are not always repeated. “Also recorded” adds a separate entry of the source.

In test [1] the test system is kainic acid-induced seizures. Put plainly: Kainic acid-induced EEG seizures, compound given intracerebroventricularly (Example 1). Particulars: individual rats, 25 μg/4 μl icv. The format is in vivo, male adult Sprague-Dawley rats. Here is the method:
An experimental model of seizures in male adult Sprague-Dawley rats was induced by unilateral microinjection of kainic acid (40 ng in 0.5 μl) in the dorsal hippocampus of freely-moving rats using chronically-implanted cannulae and electrodes. Briefly, animals were deeply anesthetized using Equithesin (1% […] and 4% chloral hydrate; 3 ml/kg, i.p.). Bipolar nichrome wire insulated electrodes (60 μm) were implanted bilaterally into the dentate gyrus of the dorsal hippocampus (septal pole), and a guide cannula (22 gauge) was unilaterally positioned on top of the dura and glued to one of the depth electrodes for the intrahippocampal injection of kainic acid. The coordinates from bregma for implantation of the hippocampal electrodes were (in mm: nose bar -2.5, AP -3.5, L ±2.4 and 3 below dura mater). An additional guide cannula was unilaterally positioned on top of the dura mater for intracerebroventricular injection of compounds (in mm, nose bar -2.5; AP -1; L +1.5). A ground lead was positioned over the nasal sinus and two screw electrodes were placed bilaterally over the parietal cortex. The electrodes were connected to a multipin socket (March Electronics, NY) and, together with the injection cannula, were secured to the skull by acrylic dental cement.

Test [2] concerns IL-1β. Put plainly: Western blot of IL-1β in hippocampal homogenates after kainate seizures. The format is in vivo, rats. Particulars: 25 μg/4 μL icv 45 and 10 min before kainic acid 40 ng, 90 min after seizures. The source says:
See Example 1 and Example 6.

The subject of test [3] is rheumatoid arthritis. As to conditions: Pavelka et al. 2002, 285 patient PHII trial; cited from earlier work.
The test system of test [4] is kainic acid-induced seizures. Put plainly: Kainic acid-induced EEG seizures, compound 1 given intraperitoneally (Example 2). The format is in vivo, rats. The method, then:
An experimental model of seizures in rats was induced by unilateral microinjection of kainic acid (40 ng in 0.5 μL) in the dorsal hippocampus of freely-moving rats using chronically-implanted cannulae. […] EEG seizures were recorded using chronically-implanted hippocampal electrodes. […] See, Example 4, where a higher dose of compound 2 produced statistically significant effects.

Test [5] has as its system seizures. Put plainly: Rodent seizure model, general statements on anti-convulsant activity. Particulars: in vivo. The source says: The examples provided herein involve an rodent seizure model that is recognized as a good model of human epilepsy and convulsions disorders.
In test [6] the test system is kainic acid-induced seizures. Put plainly: Effect of ibuprofen on kainic acid-induced EEG seizures (Example 5). It is filed as in vivo, Rats. As to conditions: for Status Epilepticus (time in status epilepticus) / Onset / No. of Seizures / Time in Seizures: 50 mg/kg. The method, then:
EEG seizures were induced in adult male Sprague-Dawley rats by intrahippocampal injection of 40 ng kainic acid (KA) using a chronically-implanted cannula. EEG seizures were recorded using chronically-implanted hippocampal electrodes. Ictal and interictal epileptic activity was quantified quantified by EEG analysis based on the following parameters: 1) the time to onset of the first ictal episode, 2) the number of ictal episodes during the 3 hours of recording, and 3) the time spent in ictal activity reckoned by adding together the duration of each ictal event. Compound 2 or its vehicle were injected intraperitoneally for 3 consecutive days (50-200 mg/kg). The 4th day, rats received compound 2, 45 and 10 min before the intrahippocampal injection of 40 ng in 0.5 μl kainic acid.
The effect of ibuprofen on seizures was also examined using the methods described in Example 4. Rats received ibuprofen (50 mg/kg, i.p.) 60 min. before unilateral intrahippocampal injection of […] in 0.5 μl kainic acid. Controls (vehicle) received saline *p<0.05 vs. vehicle by Student's t-test. Seizures were analyzed and quantified by EEG. Status epilepticus represents continuous seizure activity lasting more than 30 min. consecutively.

The mark [7] stands for this setting: individual rats, 30 mg/kg intraperitoneally, 45 and 10 min before 40 ng kainic acid, 30 mg/kg.
The mark [8] stands for this setting: individual rats, i.p. 60 min. before kainic acid.

`CCO[C@@H]1OC(=O)C[C@@H]1NC(=O)[C@@H]1CCCN2C(=O)CC[C@H](NC(=O)c3nccc4ccccc34)C(=O)N12` [Compound 1]: the “Time in ictal activity” value was 36.0 min (2×) and 30.0 min and 42.0 min (2×) and 34.0 min and 41.0 min in test [1] (45 and 10 min before 40 ng kainic acid); 25.6 ± 2.8 min in test [4] (Mean ± SE, 30 mg/kg intraperitoneally, vehicle 36.6 ± 6.9); 9 min and 32 min and 27 min and 20 min and 34 min and 25 min and 30 min and 28 min in test [4] (setting [7]). Besides, the “ONSET (time to onset of the first ictal episode)” value in test [1] (45 and 10 min before 40 ng kainic acid in left hippocampus) is 15.0 min and 20.0 min and 14.0 min (2×) and 18.0 min and 13.6 min and 9.0 min and 12.0 min; in test [4] (setting [7]), 10.5 min and 12 min and 14 min and 9 min (2×) and 23 min and 13 min and 11 min. In addition, the “No. of ictal episodes” value in test [1] (45 and 10 min before 40 ng kainic acid, 3 hours of recording) is 28 and 29 and 30 (3×) and 37 and 31 and 33; in test [4] (Mean ± SE, 30 mg/kg intraperitoneally, vehicle 20.8 ± 2.5), 20.5 ± 2.3; in test [4] (individual rats, 30 mg/kg intraperitoneally, 45 and 10 min before 40 ng kainic acid, 3 hours of recording, 30 mg/kg), 8 and 23 (2×) and 29 and 17 and 25 (2×) and 16. For the same compound, the “mature active 17 kD IL-1β in hippocampus” value in test [2] is “blocked the seizure-induced production; also recorded: reduced the formation mature active 17 kD IL-1β”. For the same compound, in test [3], the “anti-inflammatory activity in rheumatoid arthritis patients” value is given as “anti-inflammatory activity”. In addition, in test [4] (30 mg/kg intraperitoneally, vs vehicle, did not reach statistical significance), the “reduction of the total time spent in ictal activity” value is reported as −30%. The “seizure inhibition / anti-convulsant activity” value in test [4] (intraperitoneal (peripheral) route) was “inhibit seizures; also recorded: have anti-convulsant activity when administered peripherally”. In addition, in test [5], the “anti-convulsant activity in the rodent seizure model” value was “as effective as high doses of either phenytoin or carbamazepine”.
Regarding `CC(C)Cc1ccc(C(C)C(=O)O)cc1` (stereo not shown) [Ibuprofen], the “Status Epilepticus (time in status epilepticus)” value in test [6] (Mean ± SE of (5) rats, i.p., vehicle —) is 74.4 ± 2.6; in test [6] (Mean ± SE of (5) rats, i.p., vehicle —, listed as ibuprofen), “increased the time in status epilepticus”; in test [6] (individual rats, i.p., continuous seizure activity lasting more than 30 min., all vehicle rats —) it was 75 and 66.6 and 80 (2×) and 70. Also, the Onset was 13.0 ± 1.7 min in test [6] (Mean ± SE, i.p., vehicle 13.2 ± 2.1); 14.4 min and 7.9 min and 11.0 min and 12.3 min and 13.3 min and 21.4 min and 10.0 min in test [6] (individual rats, i.p. 60 min. before intrahippocampal 40 μg in 0.5 μl kainic acid). The “No. of Seizures” value in test [6] (Mean ± SE, i.p., vehicle 16.6 ± 1.0) is 11.7 ± 1.0; in test [6] (setting [8]) it was 13 (2×) and 10 (2×) and 12 and 16 and 8. In addition, the “Time in Seizures” value is 10.8 ± 0.6 min in test [6] (Mean ± SE, i.p., vehicle 21.1 ± 1.1); 13.0 min and 8.4 min and 11.0 min and 12.5 min and 11.2 min and 9.8 min and 9.4 min in test [6] (setting [8]). In addition, the “seizure activity compared to vehicle” value in test [6] (intraperitoneal route) is given as “increased the seizure activity compared to vehicle”.
As for `NC(=O)N1c2ccccc2C=Cc2ccccc21` [carbamazepine], the “anti-convulsant activity in the rodent seizure model” value in test [5] is “exhibit anti-convulsant activity”.
As for `O=C1NC(=O)C(c2ccccc2)(c2ccccc2)N1` [phenytoin], the “anti-convulsant activity in the rodent seizure model” value in test [5] is “exhibit anti-convulsant activity”.
